Patent US20240067600A1, “SMALL MOLECULE INHIBITORS OF THE MITOCHONDRIAL PERMEABILITY TRANSITION PORE (mtPTP)” (UNIVERSITY OF KANSAS, priority 2014, published 2024)
Like-named read-outs stand apart in the source and are kept apart here.

Tests used:
Type in all cases: biochemical, mice
mtPTP = experiment: Calcium retention capacity (CRC) assay on isolated mitochondria; details: for Calcium Retention Capacity (CRC/CRC0) at 1.56 μM: 1.56 μM compound; for Calcium Retention Capacity (CRC/CRC0 at 12.5 μM): 12.5 μM compound
Experimental: Assay buffer: 250 mM sucrose, 10 mM MOPS-Tris, 0.01 mM EGTA-Tris, 1.0 mM phosphoric acid-Tris, pH 7.4. • Solution 1. 10 mM glutamate and 5 mM malate in Assay buffer. • Solution 2. 1% DMSO in Solution 2. • Solution 3. 0.5 mg/mL mitochondria and 1.0 μM Calcium Green-5N in Assay Buffer. • Solution 4. 0.25 mM CaCl2).
Protocol Summary: • 1. Freshly isolate mitochondria, prepare solutions according to the recipes in the Reagent Section. • 2. Dispense 100 μL of Solution 2 to Columns 1-2 (negative control) of the 96-well black assay plate (Falcon 353376). • 3. Dispense 200 μL of Solution 1 to Row A Columns 3-12. • 4. Next, dispense 100 μL of Solution 2 to Rows B-H Columns 3-12. • 5. Add 4 μL of 5 mM test compounds in DMSO to Row A Columns 3-12, perform 1:2 serial dilutions Row A to H Columns 3-12. • 6. Finally, dispense 100 μL of Solution 3 in all wells. • 7. Experiment starts. Read Calcium Green-5N fluorescence (excitation 485 nm, emission 538 nm) and perform a train of 4 μL Solution 4 additions with Fluoroskan Ascent FL, Thermo Scientific.

[1] = test system: Mitochondrial Permeability Transition Pore; experiment: Mitochondrial swelling absorbance assay
Experimental: Mitochondrial Swelling (Hit Validation, Confirmatory Assay, Concentration-Response, AID No. 720722)
Assay buffer: 250 mM sucrose, 10 mM MOPS-Tris, 0.01 mM EGTA-Tris, 1.0 mM phosphoric acid-Tris, pH 7.4 • Solution 1. 5.0 mM glutamate and 2.5 mM malate in Assay buffer. • Solution 2. 80-120 μM CaCl2) depending on mitochondrial activity in Solution 1. Note: Concentration of Ca^2+ in the assay is dependent upon the activity of the isolated mitochondria which is determined via a calcium titration just before each screening batch. A Ca^2+ concentration is used that allows for the arrival at a 2:1 window at the 20 minute time period. • Solution 3. 1% DMSO in Solution 2. • Solution 4. 2.0 mM EGTA-Tris, pH 7.4 in Solution 3. • Solution 5. 0.5 mg/mL mitochondria in Assay Buffer.
Protocol Summary: • 1. Freshly isolate mitochondria, prepare solutions according to the recipes in the reagent section • 2. Dispense 100 μL of Solution 4 to Columns 1-2 and Solution 3 Columns 11-12 (positive and negative controls, respectively) of the 96-well clear assay plate (Falcon 353072) • 3. Dispense 200 μL of Solution 1 to Row A Columns 3-10. • 4. Next, dispense 100 μL of Solution 3 to Rows B-H Columns 3-10. • 5. Add 4 μL of 5 mM test compounds in DMSO to Row A Columns 3-10, perform 1:2 serial dilutions Row A to H Columns 3-10. • 6. Finally, dispense 100 μL of Solution 5 in all wells. The reaction starts. • 7. Keep the plate at room temperature for 20 minutes and then read absorbance at 540 nm on MultiSkan EX, Thermo Scientific.
Concentration-Response Assay to Identify Compounds that Inhibit Mitochondrial Swelling (SAR Assay AID No. 743359)
Assay buffer: 250 mM sucrose, 10 mM MOPS-Tris, 0.01 mM EGTA-Tris, 1.0 mM phosphoric acid, pH 7.4 • Solution 1. 5.0 mM glutamate and 2.5 mM malate in Assay Buffer. • Solution 2. 100-120 μM CaCl2) depending on mitochondrial activity in Solution 1. Note: Concentration of Ca^2+ in the assay is dependent upon the activity of the isolated mitochondria which is determined via a calcium titration just before each screening batch. A Ca^2+ concentration is used that allows for the arrival at a 2:1 window at the 20 minute time period. • Solution 3. 1% DMSO in Solution 2. • Solution 4. 2.0 mM EGTA-Tris, pH 7.4 in Solution 3. • Solution 5. 0.5 mg/mL mitochondria in Assay Buffer.
Protocol Summary: • 1. Freshly isolate mitochondria, prepare solutions according to the recipes in the Reagent Section. • 2. Dispense 100 μL of Solution 4 to Columns 1-2 and Solution 3 Columns 11-12 (positive and negative controls, respectively) of the 96-well clear assay plate (Falcon 353072). • 3. Dispense 200 μL of Solution 1 to Row A Columns 3-10. • 4. Next, dispense 100 μL of Solution 3 to Rows B-H Columns 3-10. • 5. Add 4 μL of 5 mM test compounds in DMSO to Row A Columns 3-10, perform 1:2 serial dilutions Row A to H Columns 3-10. • 6. Finally, dispense 100 μL of Solution 5 in all wells. The reaction starts. • 7. Keep the plate at room temperature for 20 minutes and then read absorbance at 540 nm on MultiSkan EX, Thermo Scientific.

IMM potential = experiment: Rhodamine 123 (Rh123) uptake counterscreen;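 also: isolated mitochondria respiring on glutamate plus malate in sucrose MOPS-Tris buffer at pH 7.4, Rh123 added with the organelles, compounds tested across a twofold dilution series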
Experimental: Assay buffer: 250 mM sucrose, 10 mM MOPS-Tris, 0.01 mM EGTA-Tris, 1.0 mM phosphoric acid-Tris, pH 7.4 • Solution 1. 5.0 mM glutamate and 2.5 mM malate in Assay Buffer. • Solution 2. 1% DMSO in Solution 1. • Solution 3. 0.8 μM FCCP (the stock 40 μM in DMSO) in Solution 1. • Solution 4. 0.5 mg/mL mitochondria and 0.8 μM Rh123 in Assay Buffer.
Protocol Summary: • 1. Freshly isolate mitochondria, prepare solutions according to the recipes in the Reagent Section. • 2. Dispense 100 μL of Solution 3 to Columns 1-2 and Solution 2 Columns 11-12 (positive and negative controls, respectively) of the 96-well black assay plate (Falcon 353376). • 3. Dispense 200 μL of Solution 1 to Row A Columns 3-10. • 4. Next, dispense 100 μL of Solution 2 to Rows B-H Columns 3-10. • 5. Add 4 μL of 10 mM test compounds in DMSO to Row A Columns 3-10, perform 1:2 serial dilutions Row A to H Columns 3-10. • 6. Finally, dispense 100 μL of Solution 4 in all wells. The reaction starts. • 7. Keep the plate at room temperature for 5 minutes and then read fluorescence (excitation 485 nm, emission 538 nm) on Fluoroskan Ascent FL, Thermo Scientific.
Concentration-Response Counterscreen Assay to Identify Compounds that Prevent Mitochondrial Swelling Via Interference with the IMM Potential (SAR Assay AID No. 743361)
Assay buffer: 250 mM sucrose, 10 mM MOPS-Tris, 0.01 mM EGTA-Tris, 1.0 mM phosphoric acid-Tris, pH 7.4 • Solution 1. 5.0 glutamate and 2.5 mM malate in Assay Buffer. • Solution 2. 1% DMSO in Solution 1. • Solution 3. 0.8 μM FCCP (the stock 40 μM in DMSO) in Solution 1. • Solution 4. 0.5 mg/mL mitochondria and 0.8 μM Rh123 in Assay Buffer.

[2] = Table 1, read-out: Rh123 uptake (EC50)
[3] = Table 2, average of >3 experiments ± SEM
[4] = Table 2, average of >3 experiments ± SEM, read-out: Rh123 Assay EC50
[5] = Table 1, unit inferred, average ± SEM

Row | Structure (SMILES) | Calcium Retention Capacity (CRC/CRC0) at 1.56 μM (mtPTP; Table 1, average ± SEM) | EC50 ([1]; Table 1, average ± SEM) | EC50 (IMM potential; [2]) | Calcium Retention Capacity (CRC/CRC0 at 12.5 μM) (mtPTP; Table 1, average ± SEM) | Calcium Retention Capacity (CRC/CRC0 at 12.5 μM) (mtPTP; [3]) | EC50 [1, 3] | EC50 (IMM potential; [4]) | EC50 [1, 5]
1 | Cc1c(Cl)cccc1NC(=O)c1cc(-c2ccc(Cl)c(O)c2)on1 | 8.22 ± 0.58 (at 1.56 μM) | 0.18 ± 0.042 nM | > 100 µM | – | – | – | – | –
2 | O=C(Nc1cc(Cl)cc(Cl)c1)c1cc(-c2cccc(O)c2)on1 | 5.72 ± 0.25 | 190 ± 17 nM | > 100 µM | 12.08 ± 1.92 | – | – | – | –
3 | O=C(Nc1cc(Cl)ccc1F)c1cc(-c2ccc(F)c(O)c2)on1 | – | 9 ± 1.4 nM | > 100 µM | 10.07 ± 0.69 | – | – | – | –
4 | O=C(Nc1ccc(CN2CCCCC2)cc1)c1ccc(Cl)c(OCc2cccc(Cl)c2)c1 [Entry 8] | – | – | – | – | 6.50 ± 1.20 | 1190 ± 330 nM | 23.2 ± 1.3 µM | –
5 | Cc1ncc(Cl)cc1NC(=O)c1cc(-c2ccc(F)c(O)c2)on1 | 9.12 ± 0.88 | 16 ± 1.9 nM | > 100 µM | 10.69 ± 1.00 | – | – | – | –
6 | COc1ccc(-c2cc(C(=O)Nc3cc(Cl)ccc3OC)no2)cc1O | 6.62 ± 0.84 | 97 ± 3.4 nM | > 100 µM | 9.89 ± 1.31 | – | – | – | –
7 | COc1ccc(Cl)cc1C(=O)Nc1ccc(CCN2CCNCC2)cc1 [drawing 154] | – | 7250 ± 526 nM | > 100 µM | 1.31 ± 0.03 | – | – | – | –
8 | Cc1ccccc1NC(=O)c1cc(-c2ccc(O)cc2)on1 | – | 2450 ± 148 nM | > 100 µM | 2.94 ± 0.46 | – | – | – | –
9 | Cc1ccc(Cl)cc1NC(=O)c1cc(-c2ccc(F)c(O)c2)on1 | 15.21 ± 1.26 | 0.134 ± 0.016 nM | > 100 µM | 19.28 ± 1.59 | – | – | – | –
10 | O=C(Nc1cccc(Cl)c1Cl)c1cc(-c2ccc(F)c(O)c2)on1 [drawing 136] | – | 55.4 ± 4.1 nM | > 100 µM | 9.37 ± 0.65 | – | – | – | –
11 | Cc1ccc(Cl)cc1NC(=O)c1ccc(-c2cccc(O)c2)cc1 | – | 4710 ± 349 nM | > 100 µM | 2.59 ± 0.22 | – | – | – | –
12 | O=C(Nc1ccc(CN2CCCCC2)cc1)c1cccc(Cl)c1 | – | 16000 ± 1580 nM | > 100 µM | 1.16 ± 0.02 | – | – | – | –
13 | O=C(Nc1ccc(CN2CCCCC2)cc1)c1cc(F)cc(OCc2ccccc2)c1 [Entry 1] | – | – | – | – | 10.8 ± 0.6 | 521 ± 46 nM | 58.6 ± 2.9 µM | –
14 | COc1ccc(Cl)cc1C(=O)Nc1ccc(CCN2CCCCC2)cc1 | – | 2680 ± 166 nM | > 100 µM | 1.51 ± 0.01 | – | – | – | –
15 | O=C(Nc1cccc(Cl)c1)c1cc(-c2ccc(F)c(O)c2)on1 | – | 13 ± 2 nM | > 100 µM | 10.17 ± 0.69 | – | – | – | –
16 | O=C(Nc1cc(Cl)ccc1OCc1ccccc1)c1cc(-c2cccc(O)c2)on1 | – | 17600 ± 2210 nM | > 100 µM | 1.59 ± 0.33 | – | – | – | –
17 | Cc1cnc(Cl)cc1NC(=O)c1cc(-c2ccc(F)c(O)c2)on1 | – | 2190 ± 150 nM | > 100 µM | 3.48 ± 0.51 | – | – | – | –

Row | Structure (SMILES) | Calcium Retention Capacity (CRC/CRC0) at 1.56 μM (mtPTP; Table 1, average ± SEM) | EC50 ([1]; Table 1, average ± SEM) | EC50 (IMM potential; [2]) | Calcium Retention Capacity (CRC/CRC0 at 12.5 μM) (mtPTP; Table 1, average ± SEM) | Calcium Retention Capacity (CRC/CRC0 at 12.5 μM) (mtPTP; [3]) | EC50 [1, 3] | EC50 (IMM potential; [4]) | EC50 [1, 5]
18 | O=S(=O)(Nc1ccc(CCN2CCCCC2)cc1)c1cc(Cl)cc(Cl)c1 | – | 25600 ± 1800 nM | > 100 µM | 1.17 ± 0.04 | – | – | – | –
19 | Cc1ccc(Cl)cc1NC(=O)c1cc(-c2cccc(O)c2)on1 | 9.63 ± 0.29 | 3.5 ± 0.7 nM | > 100 µM | 14.99 ± 1.20 | – | – | – | –
20 | O=C(Nc1cc(Cl)ccc1Cl)c1cc(-c2ccc(F)c(O)c2)on1 | 6.50 ± 0.77 | 66 ± 3.2 nM | > 100 µM | 12.15 ± 1.36 | – | – | – | –
21 | COc1ccc(-c2cc(C(=O)Nc3cccc(Cl)c3)no2)cc1O | – | 35 ± 4.2 nM | > 100 µM | 7.18 ± 0.87 | – | – | – | –
22 | O=C(Nc1ccc(CN2CCCCC2)cc1)c1ccc(Cl)c(OCc2ccccc2F)c1 [Entry 11] | – | – | – | – | 2.59 ± 0.54 | 1390 ± 170 nM | > 100 µM | –
23 | Cc1cccc(C)c1NC(=O)c1cc(-c2cccc(O)c2)on1 | 8.12 ± 0.59 (at 1.56 μM) | 12.1 ± 1.4 nM | > 100 µM | – | – | – | – | –
24 | O=C(Nc1ccc(CN2CCCCC2)cc1)c1cccc(OCc2ccccc2)c1 | – | 885 ± 116 nM | 51.2 µM | 3.54 ± 0.28 | – | – | – | –
25 | Cc1cc(Cl)cc(NC(=O)c2cc(-c3cccc(O)c3)on2)c1 | – | 78 ± 5 nM | > 100 µM | 9.34 ± 1.04 | – | – | – | –
26 | O=C(Nc1cc(Cl)cc(Cl)c1)c1cc(-c2ccc(F)c(O)c2)on1 [drawing 191] | – | 76 ± 9.2 nM | > 100 µM | 11.22 ± 1.22 | – | – | – | –
27 | O=C(Nc1cc(Cl)ccc1Cl)c1cc(-c2cccc(O)c2)on1 | – | 1520 ± 51.2 nM | 38.5 ± 3.98 µM | 4.67 ± 0.31 | – | – | – | –
28 | C[C@@H]1CCC[C@H](C)N1CCCC(=O)c1ccc(Br)cc1 | – | 46000 ± 1360 nM | > 100 µM | 1.01 ± 0.02 | – | – | – | –
29 | COc1ccc(-c2cc(C(=O)Nc3cc(Cl)ccc3C)no2)cc1O | 10.02 ± 0.34 | 0.00756 ± 0.00122 nM | > 100 µM | 14.44 ± 0.58 | – | – | – | –
30 | Cc1cnc(Cl)cc1NC(=O)c1cc(-c2cccc(O)c2)on1 | – | – | > 100 µM | 5.51 ± 0.99 | – | – | – | 100 ± 9.6 nM
31 | Cc1ccc(Cl)cc1NC(=O)c1cc(-c2ccc(F)c(O)c2)[nH]n1 | 10.92 ± 0.74 (at 1.56 μM) | 1.4 ± 0.2 nM | 30.4 ± 5.5 µM | – | – | – | – | –
32 | O=C(Nc1cc(Cl)cc(Cl)c1)c1cc(-c2ccc(F)c(O)c2)on1 [drawing 140] | – | – | > 100 µM | 7.14 ± 0.69 | – | – | – | 75.6 ± 9.2 nM
33 | COc1ccc(Cl)cc1C(=O)Nc1ccc(CCN2CCN(C(=O)OC(C)(C)C)CC2)cc1 [drawing 148] | – | 7610 ± 839 nM | > 100 µM | 1.37 ± 0.02 | – | – | – | –
34 | O=S(=O)(Nc1ccc(CCN2CCCCC2)cc1)c1cccc(Cl)c1 | – | 38700 ± 3670 nM | > 100 µM | 1.12 ± 0.02 | – | – | – | –
